Key:
[1] = PBS compared with water; Pierstorff et al. 2008; cited from earlier work
RAW 264.7 macrophages = experiment: Electrophoretic DNA fragmentation assay on Parylene A substrates; type: cell-based, murine
Description: Substrate Preparation. Plain glass slides were sterilized in 70% ethanol and pre-treated with A-174 Silane (SCS COATINGS, Indianapolis, Ind.) adhesion promoter according to manufacturer's protocol. Approximately 20 grams of Parylene A (UNIGLOBE KISCO, White Plains, N.Y.) was loaded into a Parylene deposition system (PDS) 2010 LABCOTER® 2 (SCS COATINGS.) The deposition took place under previously indicated conditions (Kramer et al. 1984, 22, 475, Yang et al. Journal of Crystal Growth 1998, 183, 385, herein incorporated by reference in their entireties). Application of drug to the base layer of Parylene A was accomplished via desiccation of 100 μg dexmnethasone (SIGMA ALDRICH, St Louis, Mo.), or 25 μg doxorubicin (U.S. PHARMACOPIA, Rockville, Md.) under a laminar flow hood. A second layer of 150 mg of Parylene A was deposited over the drug films to produce the eluting layer.
Cell Culture Conditions. Macrophage cell line RAW 264.7 (AICC Manassas, Va.) cells were grown in DMEM media ([…] Inc, Hemdon, Va.) supplemented with 10% FBS (AICC) and 1% Penicillin/Streptomycin (LONZA, Walkersville, Md.). Investigation of inflammation pathways utilized lipo-polysacchmide 5 ng/ml (SIGMA ALDRICH) and resultant expression of IL-6 and TNF-α genes. Analysis of cellular apoptosis was accomplished using agarose electrophoresis of DNA fragmentation.
Electrophoretic Assay. […]

[2] = system: RAW 264.7 murine macrophages; experiment: DNA fragmentation assay on DOX-ND Parylene C devices; type: cell-based; details: 16 and 20 hours, DOX positive control 2.5 μg/mL
Description: Materials and Device Fabrication. A conformal 3 g base layer of Parylene C was deposited on pre-cut 2.5 cm×2.5 cm glass slides with a […] COATING SYSTEMS (SCS) PDS 2010 LABCOATER (SCS, Indianapolis, Ind.). The Parylene layer was oxidized via oxygen plasma treatment in a HARRICK Plasma Cleaner/Sterilizer (Ithaca, N.Y.) at 100 W for one minute. A DOX-ND solution was then added to the base layer so that the final DOX-ND concentration in solution was 6.6 μg/ml. Subsequently, solvent evaporation occurred in isolation at room temperature. Following DOX-ND deposition, an ultra-thin 0.15 g palylene C layer was deposited as an elution-limiting and control element. The final layer of Parylene C was treated with oxygen plasma at 100 W for one minute. Parylene C was pyrolized into a gaseous monomer at 690° C., and deposited at room temperature under vacuum conditions for all depositions. The preceding parameters apply to devices fabricated for spectroscopy studies. The present invention is not limited to these parameters. The concentration of DOX-ND was adjusted for devices used in the DNA fragmentation assay so that the final DOX-ND concentration in solution was 33 μg/ml.
DNA Fragmentation Assay. […]

[3] = Spectroscopic analysis of DOX elution from Parylene A bi-layer; type: physicochemical; details: PBS
Description: Spectroscopy Analysis. […] Samples were placed in a 12 well plate immersed in 1.0 ml of PBS for 10 min, 20 min, 40 min, 1 hour, 4 hour, and 24 hour increments. After each time point the solution was removed and the drug eluting glass disks were transferred to a vacant well and replenished with […] of PBS. Remaining solutions were analyzed in a DU Series 700 UV-Vis Scanning Spectrophotometer (BECKMAN COULTER, Fullerton, Calif.).

release of DOX, additive spectroscopic scans ([3]; control: DOX applied to a base layer of Parylene A): complete release of DOX | release of DOX, additive spectroscopic scans ([3]; pinhole sample: DOX between Parylene A layers): gradual release of DOX
Compound: COc1cccc2c1C(=O)c1c(O)c3c(c(O)c1C2=O)C[C@@](O)(C(=O)CO)C[C@@H]3O[C@H]1C[C@H](N)[C@H](O)[C@H](C)O1 [DOX, doxorubicin]
solubility [1]: less soluble in PBS | DNA fragmentation (apoptosis), electrophoretic gel (RAW 264.7 macrophages): fragmentation of DNA indicative of cells actively undergoing apoptosis | DNA fragmentation / onset of apoptosis [2]: rigorous DNA fragmentation

— US10799593B2, “Nanodiamond particle complexes” (priority 2008, dated 2020)
